Measurements taken from patent publication US10167262B2, “Herbicidal substituted 3-arylpyrazoles” (FMC CORPORATION, priority 2014, dated 2019).
Like-named read-outs stand apart in the source and are kept apart here.

Columns and labels:
Assay type in all cases: in vivo
[1] = test system: large (Lg) crabgrass (Digitaria sanguinalis); assay: Test A pre-/postemergence greenhouse herbicide test, visual injury rating 0-100; conditions: Digitaria sanguinalis, 240 h, 1000 g ai/ha, read-out: Plant response rating (0 to 100 scale), Crabgrass, Large
Outline: (§1)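 Each species was treated both before emergence, via soil spray onto a loam–sand blend, and after emergence at the one- to two-leaf stage. Plants stayed in the greenhouse around 10 days before visual injury assessment.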

[2] = test system: morningglory (Ipomoea spp.); assay: as above; conditions: Ipomoea, 240 h, 1000 g ai/ha, read-out: Plant response rating (0 to 100 scale), Morningglory
Outline: as §1

[3] = test system: barnyardgrass (Echinochloa crus-galli); assay: as above; conditions: Echinochloa crus-galli, 240 h, 1000 g ai/ha, read-out: Plant response rating (0 to 100 scale), Barnyardgrass
Outline: as §1

corn (Zea mays) = assay: as above; conditions: Zea mays, 240 h, 1000 g ai/ha, read-out: Plant response rating (0 to 100 scale), Corn
Outline: as §1

[4] = test system: giant foxtail (Setaria faberii); assay: as above; conditions: Setaria faberi, 240 h, 1000 g ai/ha, read-out: Plant response rating (0 to 100 scale), Foxtail, Giant
Outline: as §1

[5] = test system: wheat (Triticum aestivum); assay: as above; conditions: Triticum aestivum, 240 h, 1000 g ai/ha, read-out: Plant response rating (0 to 100 scale), Wheat
Outline: as §1

[6] = test system: pigweed (Amaranthus retroflexus); assay: as above; conditions: Amaranthus retroflexus, 240 h, 1000 g ai/ha, read-out: Plant response rating (0 to 100 scale), Pigweed
Outline: as §1

[7] = test system: velvetleaf (Abutilon theophrasti); assay: as above; conditions: Abutilon theophrasti, 240 h, 1000 g ai/ha, read-out: Plant response rating (0 to 100 scale), Velvetleaf
Outline: as §1

[8] = test system: galium (catchweed bedstraw, Galium aparine); assay: Test C pre-/postemergence greenhouse test, plant response rating 0-100; conditions: Galium; for pest or weed control at 31 g/ha: 31 g ai/ha; for pest or weed control at 62 g/ha: 62 g ai/ha; for pest or weed control at 125 g/ha: 125 g ai/ha; for pest or weed control at 250 g/ha: 250 g ai/ha
Outline: (§2)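 Formulated in solvent with surfactant, test chemicals were sprayed on seeded loam/sand pots and, concurrently, on young plants 2–18 cm tall. Evaluation: visual, versus controls, day 13–15.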

[9] = test system: ragweed (common ragweed, Ambrosia elatior); assay: as above; conditions: Ambrosia artemisiifolia; for pest or weed control at 62 g/ha: 62 g ai/ha; for pest or weed control at 125 g/ha: 125 g ai/ha; for pest or weed control at 250 g/ha: 250 g ai/ha;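 as to all read-outs here: 0 is no effect and 100 is complete control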
Outline: as §2

[10] = test system: velvetleaf (Abutilon theophrasti); assay: as above; conditions: Abutilon theophrasti; for pest or weed control at 62 g/ha: 62 g ai/ha; for pest or weed control at 125 g/ha: 125 g ai/ha; for pest or weed control at 250 g/ha: 250 g ai/ha
Outline: as §2

[11] = test system: Italian ryegrass (Lolium multiflorum); assay: as above; conditions: Lolium multiflorum; for pest or weed control at 62 g/ha: 62 g ai/ha; for pest or weed control at 125 g/ha: 125 g ai/ha; for pest or weed control at 250 g/ha: 250 g ai/ha
Outline: as §2

[12] = test system: morningglory (Ipomoea coccinea); assay: as above; conditions: Ipomoea; for pest or weed control at 62 g/ha: 62 g ai/ha; for pest or weed control at 125 g/ha: 125 g ai/ha; for pest or weed control at 250 g/ha: 250 g ai/ha
Outline: as §2

[13] = post-emergence, Postemergence, read-out: Plant response rating (0 to 100), Galium
[14] = post-emergence, Postemergence, scale 0 to 100
[15] = pre-emergence, Preemergence, read-out: Plant response rating, Galium
[16] = pre-emergence, Preemergence, 500 g ai/ha
[17] = post-emergence, Postemergence, read-out: Plant response rating (0 to 100), Ragweed
[18] = post-emergence, Postemergence, read-out: Plant response rating (0 to 100), Velvetleaf
[19] = pre-emergence, Preemergence, read-out: Plant response rating, Velvetleaf
[20] = post-emergence, Postemergence, read-out: Plant response rating (0 to 100), Ryegrass, Italian
[21] = pre-emergence, Preemergence, read-out: Plant response rating, Ryegrass, Italian
[22] = post-emergence, Postemergence, read-out: Plant response rating (0 to 100), Morningglory
[23] = pre-emergence, Preemergence, read-out: Plant response rating, Morningglory
[24] = post-emergence, Postemergence, 16 g ai/ha

Work on Clc1cc(Cl)cc(-c2n[nH]cc2C(=NN2CCCC2)c2ccccc2)c1 [Compound 30, N-[[3-(3,5-dichlorophenyl)-1H-pyrazol-4-yl]phenylmethylene]-1-pyrrolidinamine] yielded a pest or weed control at 1000 g/ha ([1]; post-emergence, Postemergence) of 0%, a pest or weed control at 1000 g/ha ([1]; pre-emergence, Preemergence) of 0% and a pest or weed control at 1000 g/ha ([2]; post-emergence, Postemergence) of 0%. The pest or weed control at 1000 g/ha ([2]; pre-emergence, Preemergence) was 0%, the pest or weed control at 1000 g/ha ([3]; post-emergence, Postemergence) was 0% and the pest or weed control at 1000 g/ha ([3]; pre-emergence, Preemergence) was 0%. For the same compound, the plant injury at 1000 g/ha (corn (Zea mays); post-emergence, Postemergence) was 0%, the plant injury at 1000 g/ha (corn (Zea mays); pre-emergence, Preemergence) was 0% and the pest or weed control at 1000 g/ha ([4]; post-emergence, Postemergence) was 0%. The pest or weed control at 1000 g/ha ([4]; pre-emergence, Preemergence) was 0%, the plant injury at 1000 g/ha ([5]; post-emergence, Postemergence) was 0% and the plant injury at 1000 g/ha ([5]; pre-emergence, Preemergence) was 0%. It also gave a pest or weed control at 1000 g/ha ([6]; post-emergence, Postemergence) of 100%, a pest or weed control at 1000 g/ha ([6]; pre-emergence, Preemergence) of 90% and a pest or weed control at 1000 g/ha ([7]; post-emergence, Postemergence) of 100%. The pest or weed control at 1000 g/ha ([7]; pre-emergence, Preemergence) was 0%, the pest or weed control at 31 g/ha [8, 13] was 0% and the pest or weed control at 62 g/ha [8, 13] was 0%. For the same compound, the pest or weed control at 125 g/ha [8, 13] was 5%, the pest or weed control at 250 g/ha [8, 14] was 5% and the pest or weed control at 62 g/ha [8, 15] was 0%. It also gave a pest or weed control at 125 g/ha [8, 15] of 0%, a pest or weed control at 250 g/ha ([8]; pre-emergence, Preemergence) of 5% and a pest or weed control at 500 g/ha [8, 16] of 10%. For the same compound, the pest or weed control at 62 g/ha [9, 17] was 20%, the pest or weed control at 125 g/ha [9, 17] was 35% and the pest or weed control at 250 g/ha [9, 14] was 90%. For the same compound, the pest or weed control at 62 g/ha ([9]; pre-emergence, Preemergence, read-out: Plant response rating, Ragweed) was 50%, the pest or weed control at 250 g/ha ([9]; pre-emergence, Preemergence) was 75% and the pest or weed control at 500 g/ha [9, 16] was 100%. It also gave a pest or weed control at 62 g/ha [10, 18] of 85%, a pest or weed control at 125 g/ha [10, 18] of 85% and a pest or weed control at 250 g/ha [10, 14] of 98%. For the same compound, the pest or weed control at 62 g/ha [10, 19] was 65%, the pest or weed control at 125 g/ha [10, 19] was 70% and the pest or weed control at 250 g/ha ([10]; pre-emergence, Preemergence) was 75%. For the same compound, the pest or weed control at 500 g/ha [10, 16] was 100%, the pest or weed control at 62 g/ha [11, 20] was 0% and the pest or weed control at 125 g/ha [11, 20] was 0%. It also gave a pest or weed control at 250 g/ha [11, 14] of 0%, a pest or weed control at 62 g/ha [11, 21] of 0% and a pest or weed control at 125 g/ha [11, 21] of 0%. It also gave a pest or weed control at 250 g/ha ([11]; pre-emergence, Preemergence) of 0%, a pest or weed control at 500 g/ha [11, 16] of 0% and a pest or weed control at 62 g/ha [12, 22] of 0%. It also gave a pest or weed control at 125 g/ha [12, 22] of 0%, a pest or weed control at 250 g/ha [12, 14] of 0% and a pest or weed control at 62 g/ha [12, 23] of 10%. For the same compound, the pest or weed control at 125 g/ha [12, 23] was 15%, the pest or weed control at 250 g/ha ([12]; pre-emergence, Preemergence) was 15% and the pest or weed control at 500 g/ha [12, 16] was 15%.

Work on CCn1cc(C(=O)c2ccccc2)c(-c2cc(Cl)cc(Cl)c2)n1 [Compound 31, [3-(3,5-dichlorophenyl)-1-ethyl-1H-pyrazol-4-yl]phenylmethanone] yielded a pest or weed control at 1000 g/ha ([1]; post-emergence, Postemergence) of 0%, a pest or weed control at 1000 g/ha ([1]; pre-emergence, Preemergence) of 0% and a pest or weed control at 1000 g/ha ([2]; post-emergence, Postemergence) of 0%. For the same compound, the pest or weed control at 1000 g/ha ([2]; pre-emergence, Preemergence) was 0%, the pest or weed control at 1000 g/ha ([3]; post-emergence, Postemergence) was 20% and the pest or weed control at 1000 g/ha ([3]; pre-emergence, Preemergence) was 0%. It also gave a plant injury at 1000 g/ha (corn (Zea mays); post-emergence, Postemergence) of 10%, a plant injury at 1000 g/ha (corn (Zea mays); pre-emergence, Preemergence) of 0% and a pest or weed control at 1000 g/ha ([4]; post-emergence, Postemergence) of 0%. It also gave a pest or weed control at 1000 g/ha ([4]; pre-emergence, Preemergence) of 0%, a plant injury at 1000 g/ha ([5]; post-emergence, Postemergence) of 0% and a plant injury at 1000 g/ha ([5]; pre-emergence, Preemergence) of 0%. The pest or weed control at 1000 g/ha ([6]; post-emergence, Postemergence) was 100%, the pest or weed control at 1000 g/ha ([6]; pre-emergence, Preemergence) was 100% and the pest or weed control at 1000 g/ha ([7]; post-emergence, Postemergence) was 90%. The pest or weed control at 1000 g/ha ([7]; pre-emergence, Preemergence) was 70%, the pest or weed control at 16 g/ha [8, 24] was 0% and the pest or weed control at 31 g/ha [8, 13] was 0%. The pest or weed control at 62 g/ha [8, 13] was 0%, the pest or weed control at 125 g/ha [8, 13] was 5% and the pest or weed control at 16 g/ha [9, 24] was 0%. For the same compound, the pest or weed control at 62 g/ha [9, 17] was 0%, the pest or weed control at 125 g/ha [9, 17] was 5% and the pest or weed control at 16 g/ha [10, 24] was 50%. For the same compound, the pest or weed control at 62 g/ha [10, 18] was 75%, the pest or weed control at 125 g/ha [10, 18] was 80% and the pest or weed control at 16 g/ha [11, 24] was 0%. For the same compound, the pest or weed control at 62 g/ha [11, 20] was 0%, the pest or weed control at 125 g/ha [11, 20] was 0% and the pest or weed control at 16 g/ha [12, 24] was 0%. For the same compound, the pest or weed control at 62 g/ha [12, 22] was 5% and the pest or weed control at 125 g/ha [12, 22] was 5%.
